In publication PMC12567398, “New Assay Systems to Characterize the Broad-Spectrum Antiherpesviral and Non-Herpesviral Activity of Cyclin-Dependent Kinase (CDK) 8 Inhibitors” (Pharmaceuticals, 2025):
Where two headings read alike, the source gives them in different places.

Legend:
MHV-68-Luc = MHV-68-Luc luciferase reporter assay; assay type: cell-based, murine herpesvirus 68; conditions: Murine herpesvirus
in vitro [1] = conditions: African green monkey
in vitro [2] = conditions: human, CC50
in vitro [3] = conditions: mouse
[4] = tested on: Epstein–Barr virus P3HR-1; test: EBV lytic assay in TPA-induced P3HR-1 cells, qPCR; assay type: cell-based
in vitro [5] = conditions: human
EHV-1-GFP = EHV-1-GFP antiviral assay, GFP fluorometry; assay type: cell-based, equine herpesvirus 1
vaccinia virus VV IHD-5 = test: microbe, parasite or virus in culture; assay type: cell-based
HHV-6A-GFP = test: HHV-6A plaque reduction assay in HFFs; conditions: read-out: Antiviral mean EC50 based on plaque assay measurements
[6] = Neutral Red uptake cell viability assay, HFF; conditions: human
[7] = Neutral Red uptake cell viability assay, MEF; conditions: mouse
[8] = Neutral Red uptake cell viability assay, Vero; conditions: African green monkey
[9] = Neutral Red uptake cell viability assay, COS-7; conditions: African green monkey
[10] = Neutral Red uptake / Alamar Blue cell viability assay, 293T; conditions: human
EHV-1 = test: EHV-1-specific qPCR of virus release into culture medium; assay type: cell-based, equine herpesvirus 1; conditions: EHV-1, read-out: EC50
HCMV = tested on: HCMV; set-up: method as in ref 35, 38 (a number printed in a supplementary file, which may have a reference list of its own: not looked up in the article's list); conditions: Table S1; read-out: antiviral EC50, HCMV; cited from earlier work
RhCMV = tested on: RhCMV; set-up: method as in ref 35, 38 (a number printed in a supplementary file, which may have a reference list of its own: not looked up in the article's list); conditions: Table S1; read-out: antiviral EC50, RhCMV; cited from earlier work
ChCMV = tested on: ChCMV; set-up: method as in ref 35, 38 (a number printed in a supplementary file, which may have a reference list of its own: not looked up in the article's list); conditions: Table S1; read-out: antiviral EC50, ChCMV; cited from earlier work
MCMV = tested on: MCMV; set-up: method as in ref 35, 38 (a number printed in a supplementary file, which may have a reference list of its own: not looked up in the article's list); conditions: Table S1; read-out: antiviral EC50, MCMV; cited from earlier work
RCMV = tested on: RCMV; set-up: method as in ref 35, 38 (a number printed in a supplementary file, which may have a reference list of its own: not looked up in the article's list); conditions: Table S1; read-out: antiviral EC50, RCMV; cited from earlier work
GPCMV = tested on: GPCMV; set-up: method as in ref 35, 38 (a number printed in a supplementary file, which may have a reference list of its own: not looked up in the article's list); conditions: Table S1; read-out: antiviral EC50, GPCMV; cited from earlier work
HHV-6A = tested on: HHV-6A; set-up: method as in ref 35 (a number printed in a supplementary file, which may have a reference list of its own: not looked up in the article's list); conditions: Table S1; J-Jhan cells; read-out: antiviral EC50, HHV-6A (J-Jhan); cited from earlier work
HSV-1 = tested on: HSV-1; set-up: method as in ref 35, 38 (a number printed in a supplementary file, which may have a reference list of its own: not looked up in the article's list); conditions: Table S1; read-out: antiviral EC50, HSV-1; cited from earlier work
VZV = tested on: VZV; set-up: method as in ref 35, 38 (a number printed in a supplementary file, which may have a reference list of its own: not looked up in the article's list); conditions: Table S1; read-out: antiviral EC50, VZV; cited from earlier work
KSHV = tested on: KSHV; set-up: method as in ref 35, 38 (a number printed in a supplementary file, which may have a reference list of its own: not looked up in the article's list); conditions: Table S1; read-out: antiviral EC50, KSHV; cited from earlier work
HAdV = tested on: HAdV; set-up: method as in ref 35, 38 (a number printed in a supplementary file, which may have a reference list of its own: not looked up in the article's list); conditions: Table S1; read-out: antiviral EC50, HAdV; cited from earlier work
[11] = human gammaherpesvirus 4, 240 h, EBV, TPA-induced P3HR-1, 10 d, read-out: Antiviral mean EC50 based on qPCR measurements
[12] = Orthopoxvirus vaccinia, 48 h, read-out: Antiviral mean EC50 based on luciferase measurements
[13] = mean CC50, HFF, HHV-6A assay conditions (Fig 2D)
[14] = CC50, Vero, reference compounds (Fig 1E)
[15] = CC50, COS-7, listed with GFP / COS-7 (Fig 1E)

For `Nc1nc2c(ncn2COCCO)c(=O)[nH]1` [ACV, aciclovir], the EC50 (MHV-68-Luc; MHV-68-Luc, HFF) was greater than 5 µM, the EC50 (MHV-68-Luc; MHV-68-Luc, MEF) was 22.2 ± 5.5 µM and the EC50 (MHV-68-Luc; Vero, MHV-68-Luc) was 0.3 ± 0.3 µM. The CC50 at 7 d (in vitro [1]) was greater than 100 µM, the CC50 (in vitro [2]) was greater than 100 µM and the CC50 at 7 d (in vitro [3]) was greater than 100 µM.

`CC(C)(C)C(=O)OCOP(=O)(COCCn1cnc2c(N)ncnc21)OCOC(=O)C(C)(C)C` [ADV, adefovir dipivoxil] showed an EC50 [4, 11] of 1.7 ± 0.2 µM and a CC50 at 10 d (in vitro [5]) of 93 µM.

In the case of `Nc1ncnc2c1ncn2CCOCP(=O)(O)O` [AFV, adefovir], the EC50 [4, 11] is reported as 13 ± 5 µM and the CC50 (in vitro [5]) is reported as greater than 100 µM.

With `CCCCCCCCCCCCCCCCOCCCOP(=O)(O)CO[C@H](CO)Cn1ccc(N)nc1=O` [BCV, brincidofovir] the EC50 (EHV-1-GFP) was 0.03 ± 0.01 µM, the EC50 (EHV-1-GFP; COS-7) was 0.04 ± 0.003 µM and the EC50 (EHV-1-GFP; Equus caballus, Vero) was 0.002 ± 0.003 µM. It also gave an EC50 (MHV-68-Luc; COS-7, MHV-68-Luc, COS-7) of 0.2 ± 0.04 µM, an EC50 (MHV-68-Luc; MHV-68-Luc, HFF) greater than 0.5 µM and an EC50 (MHV-68-Luc; MHV-68-Luc, MEF) of 0.1 ± 0.07 µM. It also gave an EC50 (MHV-68-Luc; Vero, MHV-68-Luc) of 0.01 ± 0.003 µM, an EC50 (vaccinia virus VV IHD-5; [12]) of 1.9 ± 0.4 µM and an EC50 (HHV-6A-GFP; Human betaherpesvirus 6A) of 0.002 ± 0.001 µM. The CC50 ([6]; CC50, HFF, reference compounds (Fig 1E)) was 19 ± 3 µM, the CC50 [6, 13] was greater than 10 µM and the CC50 at 7 d [7] was greater than 10 µM. It also gave a CC50 at 7 d ([8]; CC50, Vero (Fig 4F)) greater than 10 µM, a CC50 at 7 d [8, 14] of 1.3 ± 1.4 µM and a CC50 at 4 d ([9]; CC50, COS-7 (Fig 4F)) greater than 10 µM. For the same compound, the CC50 at 4 d [9, 15] was 9.8 ± 1.9 µM and the CC50 at 2 d [10] was greater than 10 µM.

`Nc1ccn(C[C@@H](CO)OCP(=O)(O)O)c(=O)n1` [CDV, cidofovir] gave an EC50 (EHV-1-GFP; COS-7) of 3.2 ± 3.8 µM, an EC50 (EHV-1-GFP; Equus caballus, Vero) of 4.5 ± 2.4 µM and an EC50 (HHV-6A-GFP; Human betaherpesvirus 6A) of 0.4 ± 0.1 µM. The CC50 [6, 13] was greater than 100 µM, the CC50 at 7 d [8, 14] was greater than 100 µM and the CC50 at 4 d [9, 15] was 85.6 ± 6.6 µM.

Compound `O=C(O)P(=O)(O)O` [FOS, foscarnet] has an EC50 (MHV-68-Luc; MHV-68-Luc, HFF) greater than 500 µM, an EC50 (MHV-68-Luc; MHV-68-Luc, MEF) of 41.5 ± 17.5 µM and an EC50 (MHV-68-Luc; Vero, MHV-68-Luc) of 36.4 ± 10.8 µM. The CC50 ([6]; CC50, HFF (Fig 4F)) was greater than 1000 µM, the CC50 at 7 d [7] was greater than 1000 µM and the CC50 at 7 d ([8]; CC50, Vero (Fig 4F)) was greater than 1000 µM.

`COc1cccc(N2CCN(C3=Nc4c(F)cccc4[C@H](CC(=O)O)N3c3cc(C(F)(F)F)ccc3OC)CC2)c1` [LMV, letermovir] showed an EC50 (MHV-68-Luc; MHV-68-Luc, HFF) greater than 50 µM, an EC50 (MHV-68-Luc; MHV-68-Luc, MEF) greater than 50 µM and an EC50 (MHV-68-Luc; Vero, MHV-68-Luc) of 44 ± 3.2 µM. The EC50 (vaccinia virus VV IHD-5; [12]) was greater than 50 µM.

With `CC(C)Nc1nc2cc(Cl)c(Cl)cc2n1[C@H]1O[C@@H](CO)[C@H](O)[C@@H]1O` [MBV, maribavir] the EC50 (MHV-68-Luc; COS-7, MHV-68-Luc, COS-7) was greater than 50 µM, the EC50 (MHV-68-Luc; MHV-68-Luc, HFF) was 269 ± 55.5 µM and the EC50 (MHV-68-Luc; MHV-68-Luc, MEF) was 59.6 ± 2.2 µM. It also gave an EC50 (MHV-68-Luc; Vero, MHV-68-Luc) of 88.9 ± 13.6 µM, a CC50 ([6]; CC50, HFF (Fig 4F)) of 163 ± 9 µM and a CC50 at 7 d [7] of 179 ± 10 µM. The CC50 at 7 d ([8]; CC50, Vero (Fig 4F)) was greater than 1000 µM and the CC50 at 4 d ([9]; CC50, COS-7 (Fig 4F)) was greater than 100 µM.

`Cc1n[nH]c2ncc(C(=O)N3CCC[C@H]3c3ccc(Cl)cc3)cc12` [MSC-2530818] showed an EC50 (EHV-1; qPCR / COS-7) of 0.7 ± 0.9 µM, an EC50 (EHV-1; qPCR / HFF) of 0.08 ± 0.2 µM and an EC50 ([4]; Table S1, read-out: antiviral EC50, EBV) of 1.4 ± 0.6 µM. For the same compound, the EC50 (vaccinia virus VV IHD-5; read-out: antiviral EC50, VV) was greater than 50 µM, the “CDK8 inhibitor sensitivity of SARS-CoV-2 in Caco-2 cells” value (SARS-CoV-2 d6-YFP; in words) was “low level of sensitivity” and the EC50 (SARS-CoV-2 d6-YFP; read-out: Antiviral mean EC50 based on YFP measurements, SARS-CoV-2 d6-YFP, Caco-2, […]) was no less than 15.4 µM. For the same compound, the EC50 (SARS-CoV-2 d6-YFP; read-out: antiviral EC50, SARS-CoV-2, Table S1) was 15.4 ± 6.4 µM, the CC50 (Vero cells) was greater than 100 µM and the CC50 (MEFs) was greater than 100 µM. It also gave a CC50 (P3HR-1 cells) greater than 100 µM, a CC50 (Caco-2 cells) greater than 100 µM and a CC50 (293T-tdTom-Luc cells) greater than 100 µM. For the same compound, the EC50 (HCMV) was 0.001 ± 0.0007 µM, the EC50 (RhCMV) was 0.002 ± 0.001 µM and the EC50 (ChCMV) was 0.02 ± 0.03 µM. The EC50 (MCMV) was 0.02 ± 0.02 µM, the EC50 (RCMV) was 0.003 ± 0.008 µM and the EC50 (GPCMV) was 0.03 ± 0.05 µM. For the same compound, the EC50 (HHV-6A) was greater than 50 µM, the EC50 (HSV-1) was 42.3 ± 4.9 µM and the EC50 (VZV) was greater than 50 µM. The EC50 (KSHV) was greater than 40 µM, the EC50 (HAdV) was 0.3 ± 0.3 µM and the EC50 (HHV-6A-GFP; HHV-6A, HFF) was 0.2 ± 0.4 µM.
